# Read-outs that look alike come from different tables or passages of the source. Marks after values point to notes of the source that are not given here.
# System: human subjects with allergies (allergic rhinitis)
# Format: in vivo
# Conditions: for 24-hr. Recur Rate / After Effects / Symptom Free, Minutes Post-Treatment / Symptom, Relief, Minutes Post-Treatment: moderate, severe; for Est. Rate / Est. Total Dose / Number of Doses / Single Dose Duration / Total Dose / Total Treatment Time: self-selected effective dose
# Excerpt: The test device was a hand-held, multi-dose, disposable, dispenser that was approximately 3 to 4 inches long and 6/8 to ⅞ inches in diameter constructed as described above. The device consisted of a plastic twist-top flow regulator mounted on top of a pressurized steel cartridge containing liquid carbon dioxide. The tip of the flow regulator has a nosepiece that is the optimal size and configuration to place against and seal off a nostril for administration of the gas. In a number of subjects, the effective nasal and oral carbon dioxide flow rates, and maximum tolerable nasal and oral flow rates, were measured using a laboratory apparatus. This apparatus consisted of a flow regulator connected via tubing to a flow meter and a large tank of carbon dioxide. These flow data were used, together with the number of seconds gas was administered during therapy, to calculate the estimated dose of gas in milliliters.
# Of the total of 15 subjects included in the analysis, 11 used the treatment for 35 headaches and 9 subjects used it for 9 allergy attacks. […] subjects treated both headache and allergy but on different days. The subjects included adults, elderly, and children of both sexes in good general health, having mild, moderate, and severe headaches or having allergies to plant, animal, or airborne allergens. The device was used to treat migraine and tension-type headaches, jaw pain, and allergies (allergic rhinitis, with symptoms that included sinus congestion, sneezing, and itchy throat and eyes). There was no limitation on the duration of symptoms before treatment with the device. Subjects with no prior use of the device and those who have used it (to treat allergy symptoms) previously were included.
# Carbon dioxide (100%) was administered nasally by the subject for a few seconds via a nostril to fill the nasal passages while holding their breath, or taking breaths of room air occasionally if the dose was lengthy. The gas exited the other nostril. Such nasal administration is similar to presently marketed nasal inhalers except that the administered gas was not inhaled. […] Subjects took as many doses as they needed for relief. It is important to note that there were no number of doses, duration of dose, time between doses, or gas flow rate specified for the user. Subjects chose their own regimen for symptom relief. Similarly, in medical practice today, gas therapy is a “titrate to effect” therapy without a specified dosage.
# For allergy, the rating of the intensity level depends on the extent to which the allergy interferes with the ability to function. […] The same outcome measures as for headache were used for allergy.
# [1] = Allergy (N = 8), more stringent outcome measure definitions
# [2] = Allergy (N = 8), more stringent outcome measure definitions, 1 min post-treatment
# [3] = Allergy (N = 8), more stringent outcome measure definitions, 5 min post-treatment
# [4] = Allergy (N = 8), more stringent outcome measure definitions, 15 min post-treatment
# [5] = Allergy (N = 8), more stringent outcome measure definitions, 30 min post-treatment
# [6] = Allergy (N = 9), mild, 1 min post-treatment
# [7] = Allergy (N = 9), mild, 5 min post-treatment
# [8] = Allergy (N = 9), mild, 15 min post-treatment
# [9] = Allergy (N = 9), mild, 30 min post-treatment
structure (smiles),measurement,setting,value
O=C=O [carbon dioxide],24-hr. Recur Rate,[1],50%
same,After Effects,[1],0%
same,"Symptom Free, Minutes Post-Treatment",[2],25%
same,"Symptom, Relief, Minutes Post-Treatment",[2],25%
same,"Symptom Free, Minutes Post-Treatment",[3],63%
same,"Symptom, Relief, Minutes Post-Treatment",[3],75%
same,"Symptom Free, Minutes Post-Treatment",[4],88%
same,"Symptom, Relief, Minutes Post-Treatment",[4],100%
same,"Symptom Free, Minutes Post-Treatment",[5],88%
same,"Symptom, Relief, Minutes Post-Treatment",[5],100%
same,After Effects,"Allergy (N = 9), mild",0%
same,"Symptom Free, Minutes Post-Treatment",[6],33%
same,"Symptom, Relief, Minutes Post-Treatment",[6],33%
same,"Symptom Free, Minutes Post-Treatment",[7],67%
same,"Symptom, Relief, Minutes Post-Treatment",[7],78%
same,"Symptom Free, Minutes Post-Treatment",[8],89%
same,"Symptom, Relief, Minutes Post-Treatment",[8],100%
same,"Symptom Free, Minutes Post-Treatment",[9],89%
same,"Symptom, Relief, Minutes Post-Treatment",[9],100%
same,24-hr. Recur Rate,"Allergy (N = 9), mild, N=4 for this determination",50%
same,Est. Rate,Allergy-All,3 mL/s
same,Est. Total Dose,Allergy-All,133 mL
same,Number of Doses,Allergy-All,2 #
same,Single Dose Duration,Allergy-All,13 s
same,Total Dose,Allergy-All,39 s
same,Total Treatment Time,Allergy-All,5 min
same,Est. Rate,Allergy-Mild,5 mL/s
same,Est. Total Dose,Allergy-Mild,200 mL
same,Number of Doses,Allergy-Mild,2 #
same,Single Dose Duration,Allergy-Mild,15 s
same,Total Dose,Allergy-Mild,40 s
same,Total Treatment Time,Allergy-Mild,>0.7 min
same,Est. Rate,Allergy-Moderate,2 mL/s
same,Est. Total Dose,Allergy-Moderate,31 mL
same,Number of Doses,Allergy-Moderate,2 #
same,Single Dose Duration,Allergy-Moderate,3 s
same,Total Dose,Allergy-Moderate,16 s
same,Total Treatment Time,Allergy-Moderate,>0.2 min
same,Est. Rate,Allergy-Severe,4 mL/s
same,Est. Total Dose,Allergy-Severe,156 mL
same,Number of Doses,Allergy-Severe,2 #
same,Single Dose Duration,Allergy-Severe,17 s
same,Total Dose,Allergy-Severe,46 s
same,Total Treatment Time,Allergy-Severe,>3.9 min
same,efficacy,"allergic rhinitis, occurring in seconds to minutes",88-100%
same,adverse after effects of treatment,allergy subjects,No subjects reported any adverse after effects
same,onset of symptom relief,"allergy, while administering the first dose",immediate onset of symptom relief within seconds
same,oral versus nasal administration,"oral administration via pursed lips, allergic inflammation extending into the oral cavity",more effective
same,time of recurrence of allergy symptoms post-treatment,recurrences,≥ 3 h

# — US20050279350A1, “Methods and apparatus for relieving headaches, rhinitis and other common ailments” (priority 1999, published 2005)
